Measured values taken from PMC6309430 (Journal of pharmaceutical sciences, 2017).
Read-outs that look alike come from different tables or passages of the source.

Columns and labels:
[1] = biological target: T1, P-glycoprotein (Pgp; Abcb1a, MDR3) (Mus musculus, UniProt P21447); assay: intrinsic protein; assay type: binding
[2] = biological target: T1, P-glycoprotein (Pgp; Abcb1a, MDR3); assay: intrinsic protein; assay type: binding; remark: listed apart in the source

T1 sequence (P21447 whole entry): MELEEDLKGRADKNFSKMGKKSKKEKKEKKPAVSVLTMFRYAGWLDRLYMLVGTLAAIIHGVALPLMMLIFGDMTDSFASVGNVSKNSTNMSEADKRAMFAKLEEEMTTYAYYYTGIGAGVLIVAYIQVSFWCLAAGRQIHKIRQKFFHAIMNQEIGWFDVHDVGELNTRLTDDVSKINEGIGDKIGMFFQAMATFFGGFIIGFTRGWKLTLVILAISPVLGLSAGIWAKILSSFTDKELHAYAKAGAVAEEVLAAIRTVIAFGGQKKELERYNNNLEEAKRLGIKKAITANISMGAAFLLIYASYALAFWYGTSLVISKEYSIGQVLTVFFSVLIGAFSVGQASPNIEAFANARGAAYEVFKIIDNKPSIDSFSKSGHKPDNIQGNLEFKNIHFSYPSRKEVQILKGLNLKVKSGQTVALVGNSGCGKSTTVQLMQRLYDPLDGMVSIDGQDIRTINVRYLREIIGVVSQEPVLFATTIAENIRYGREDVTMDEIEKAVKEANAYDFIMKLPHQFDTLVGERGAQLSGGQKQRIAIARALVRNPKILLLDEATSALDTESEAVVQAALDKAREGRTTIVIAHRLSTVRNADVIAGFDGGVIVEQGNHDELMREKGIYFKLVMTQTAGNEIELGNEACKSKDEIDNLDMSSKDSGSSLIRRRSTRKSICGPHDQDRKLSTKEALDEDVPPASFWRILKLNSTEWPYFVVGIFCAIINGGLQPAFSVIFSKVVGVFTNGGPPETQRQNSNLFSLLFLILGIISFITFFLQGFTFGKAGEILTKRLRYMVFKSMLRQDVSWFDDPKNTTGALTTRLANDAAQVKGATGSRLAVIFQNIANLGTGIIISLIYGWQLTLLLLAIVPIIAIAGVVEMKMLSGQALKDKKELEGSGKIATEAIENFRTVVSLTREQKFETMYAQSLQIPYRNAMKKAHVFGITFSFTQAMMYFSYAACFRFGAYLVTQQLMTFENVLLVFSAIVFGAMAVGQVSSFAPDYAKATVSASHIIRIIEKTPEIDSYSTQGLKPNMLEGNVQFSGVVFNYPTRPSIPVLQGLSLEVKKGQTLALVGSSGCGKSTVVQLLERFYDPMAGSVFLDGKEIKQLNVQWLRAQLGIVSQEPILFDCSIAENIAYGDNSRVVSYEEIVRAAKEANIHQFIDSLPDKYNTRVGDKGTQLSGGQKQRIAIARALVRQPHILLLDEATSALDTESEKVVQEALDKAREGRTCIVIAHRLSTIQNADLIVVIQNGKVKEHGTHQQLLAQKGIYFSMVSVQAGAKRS

| Kd [1] [µM] | Kd [2] [µM] | SMILES |
| --- | --- | --- |
| 92.6 ± 25 | – | CNS(=O)(=O)Cc1ccc2[nH]cc(CCN(C)C)c2c1 [STT, sumatriptan] |
| – | 115 ± 10 | CN1CCC[C@@H]1Cc1c[nH]c2ccc(CCS(=O)(=O)c3ccccc3)cc12 [ETT, eletriptan] |
